This note sets out measurements from ChEMBL document CHEMBL5725362, “Long chain base sphingosine kinase inhibitors” (2017).

pKi: −log10 of the molar value.

Sequence of Sphingosine kinase 1 (Q9NYA1 whole entry): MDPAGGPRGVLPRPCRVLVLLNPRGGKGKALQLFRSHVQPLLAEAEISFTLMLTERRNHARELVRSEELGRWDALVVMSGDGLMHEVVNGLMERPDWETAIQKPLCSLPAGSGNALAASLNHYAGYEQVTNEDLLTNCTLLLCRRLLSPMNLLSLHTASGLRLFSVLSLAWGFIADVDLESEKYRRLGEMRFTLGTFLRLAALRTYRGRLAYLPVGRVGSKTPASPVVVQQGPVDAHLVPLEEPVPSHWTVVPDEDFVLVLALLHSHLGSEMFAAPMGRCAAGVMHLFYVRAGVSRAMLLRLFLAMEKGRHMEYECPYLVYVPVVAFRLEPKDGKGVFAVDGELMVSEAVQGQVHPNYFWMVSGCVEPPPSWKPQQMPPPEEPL

The experiment has as its target Sphingosine kinase 1 (Homo sapiens, UniProt Q9NYA1). As to the kind of experiment: Scintillation Proximity Assay: SphK activity was measured by a scintillation proximity assay as previously described [1], the disclosure of which is incorporated herein. Briefly, recombinant SphK1 or SphK2 were expressed in Sf9 insect cells, crude homogenates were prepared and incubated in 96 well FlashPlates (Perkin-Elmer) in a buffer containing D-erythro-sphingosine and γ-[33P]ATP. The [33P]S1P …. A general note: Scintillation proximity formats need no separation of bound from free tracer.
Consider `N=C(N)N1CCC[C@H]1c1nc(-c2ccc(CS(=O)(=O)c3ccccc3)cc2)no1`, for which the pKi (usually the negative decadic logarithm of the Ki, by convention in mol/L) is below 5.00. The figure for `CCCCCCCCCCCCc1cccc(-c2noc(C3(C(=N)N)CC3)n2)c1` is above 6.00.

For `N=C(N)C1(c2nnc(-c3ccc(CCCCCCCOCC4CCCCC4)cc3)o2)CC1`, the negative-log Ki (pKi) was above 6.00. With `N=C(N)C1(c2nc(-c3cccc(CCCCCCOCC4CCCCC4)c3)no2)CC1` the figure was above 6.00; with `CCCCCCCCCCCc1cc(-c2noc(C3(C(=N)N)CC3)n2)ccc1C`, above 6.00. The figure for `CCCCCCCCCCCc1ccc(F)c(-c2nnc(C3(C(=N)N)CC3)o2)c1` is above 6.00; for `CCCCCCCCCCCc1cc(-c2nnc(C3(C(=N)N)CC3)o2)ccc1C` it is above 6.00; for `CCCCCCCCCCCc1cc(-c2nnc(C3(C(=N)N)CC3)o2)ccc1F` it is above 6.00. For the compound `N=C(N)C1(c2nnc(-c3cccc(CCCCCCOCC4CCCCC4)c3)o2)CC1`, the negative logarithm of the Ki (pKi) is above 6.00. In the case of `CCCCCCCCCCc1ccc(/C=C/C2(C(=N)N)CC2)cc1`, the pKi was below 5.00.

Consider `N=C(N)C1(c2nc(-c3cccc(CCc4cccc(CCC5CCCCC5)c4)c3)no2)CC1`, for which the negative-log Ki (pKi) was above 6.00. For the compound `CCCCCCCCCCCc1cccc(-c2nc(C3(C(=N)N)CC3)n[nH]2)c1`, the negative-log Ki (pKi) is above 6.00. With `CCCCCCCCCCCc1cccc(-c2nnc(C3(C(=N)N)CC3)o2)c1` the figure was above 6.00. With `CCCCCCCCCCCc1ccc(C)c(-c2nnc(C3(C(=N)N)CC3)o2)c1` the figure was above 6.00.
